#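 Dose response: 5 concentrations. Exposure: 48 h. Format: 96-well plates. Endpoint: linear interpolation; highest concentration if not reached. GI50 marks 50% less growth. TGI denotes the concentration required for complete inhibition of growth.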
# Assays:
# Experiment in all cases: NCI-60 cell line screen, 48 h
# [1] = test system: SF-268 CNS
# [2] = test system: NCI-H23 lung
# [3] = test system: K-562 leukemia
# [4] = test system: SK-MEL-5 melanoma
# [5] = test system: A498 renal
# [6] = test system: RPMI-8226 leukemia
# [7] = test system: SR leukemia
# [8] = test system: CAKI-1 renal
# [9] = test system: 786-0 renal
# [10] = test system: A549 NSCLC
# [11] = test system: SF-539 CNS
# [12] = test system: SNB-75 CNS
# [13] = test system: SF-295 CNS
# [14] = test system: HCT-116 colon
# [15] = test system: OVCAR-5 ovarian
# [16] = test system: HS 578T breast
# [17] = test system: HT29 colon
# [18] = test system: OVCAR-3 ovarian
# [19] = test system: MOLT-4 leukemia
# [20] = test system: MALME-3M melanoma
# [21] = test system: HCT-15 colon
# [22] = test system: SW-620 colon
# [23] = test system: DU-145 prostate
# [24] = test system: UACC-257 melanoma
# [25] = test system: CCRF-CEM leukemia
# [26] = test system: LOX IMVI melanoma
# [27] = test system: UACC-62 melanoma
# [28] = test system: SN12C renal
# [29] = test system: SK-MEL-28 melanoma
# [30] = test system: ACHN renal
# [31] = test system: PC-3 prostate
# [32] = test system: NCI-H460 lung
# [33] = test system: M14 melanoma
# [34] = test system: MDA-MB-231 breast
# [35] = test system: KM12 colon
# [36] = test system: UO-31 renal
# [37] = test system: MDA-MB-435
# [38] = test system: SK-OV-3 ovarian
# [39] = test system: NCI-H226 lung
# [40] = test system: NCI/ADR-RES ovarian
# [41] = test system: T-47D breast
# [42] = test system: COLO 205 colon
# [43] = test system: EKVX NSCLC
# [44] = test system: BT-549 breast
# [45] = test system: HCC-2998 colon
# [46] = test system: TK-10 renal
# [47] = test system: OVCAR-4 ovarian
# [48] = test system: HL-60(TB) leukemia
compound,measurement,setting,value
COc1cc2nc(Cl)nc(Nc3cccc(C4=Nc5c(N)nc(N)nc5NC(c5ccc(F)cc5)C4)c3)c2cc1OC (stereo unspecified),GI50,[1],1680 nM
same,TGI,[1],3680 nM
same,GI50,[2],2000 nM
same,TGI,[2],4730 nM
same,GI50,[3],1960 nM
same,TGI,[3],4680 nM
same,GI50,[4],1650 nM
same,TGI,[4],3020 nM
same,GI50,[5],1010 nM
same,TGI,[5],2470 nM
same,GI50,[6],1770 nM
same,TGI,[6],4420 nM
same,GI50,[7],1960 nM
same,TGI,[7],4800 nM
same,GI50,[8],1610 nM
same,TGI,[8],3270 nM
same,GI50,[9],1560 nM
same,TGI,[9],2990 nM
same,GI50,[10],2640 nM
same,TGI,[10],7820 nM
same,GI50,[11],1530 nM
same,TGI,[11],2930 nM
same,GI50,[12],1130 nM
same,TGI,[12],2420 nM
same,GI50,[13],1820 nM
same,TGI,[13],3500 nM
same,GI50,[14],1760 nM
same,TGI,[14],3340 nM
same,GI50,[15],1790 nM
same,TGI,[15],3550 nM
same,GI50,[16],1980 nM
same,TGI,[16],4530 nM
same,GI50,[17],2050 nM
same,TGI,[17],4380 nM
same,GI50,[18],1850 nM
same,TGI,[18],3550 nM
same,GI50,[19],1770 nM
same,TGI,[19],5450 nM
same,GI50,[20],2010 nM
same,TGI,[20],3760 nM
same,GI50,[21],1960 nM
same,TGI,[21],4270 nM
same,GI50,[22],1760 nM
same,TGI,[22],3600 nM
same,GI50,[23],1770 nM
same,TGI,[23],3440 nM
same,GI50,[24],1960 nM
same,TGI,[24],3940 nM
same,GI50,[25],1050 nM
same,TGI,[25],4140 nM
same,GI50,[26],1780 nM
same,TGI,[26],3510 nM
same,GI50,[27],1760 nM
same,TGI,[27],3310 nM
same,GI50,[28],1720 nM
same,TGI,[28],3480 nM
same,GI50,[29],1620 nM
same,TGI,[29],3040 nM
same,GI50,[30],1740 nM
same,TGI,[30],3220 nM
same,GI50,[31],2170 nM
same,TGI,[31],6680 nM
same,GI50,[32],1910 nM
same,TGI,[32],3820 nM
same,GI50,[33],1860 nM
same,TGI,[33],3700 nM
same,GI50,[34],1490 nM
same,TGI,[34],3030 nM
same,GI50,[35],1880 nM
same,TGI,[35],3610 nM
same,GI50,[36],1550 nM
same,TGI,[36],3540 nM
same,GI50,[37],1660 nM
same,TGI,[37],3110 nM
same,GI50,[38],25700 nM
same,TGI,[38],59300 nM
same,GI50,[39],3220 nM
same,TGI,[39],16600 nM
same,GI50,[40],6070 nM
same,TGI,[40],> 100000 nM
same,GI50,[41],1930 nM
same,TGI,[41],4640 nM
same,GI50,[42],1770 nM
same,TGI,[42],3510 nM
same,GI50,[43],1500 nM
same,TGI,[43],3990 nM
same,GI50,[44],2290 nM
same,TGI,[44],4360 nM
same,GI50,[45],1920 nM
same,TGI,[45],3480 nM
same,GI50,[46],1950 nM
same,TGI,[46],3860 nM
same,GI50,[47],1630 nM
same,TGI,[47],3380 nM
same,GI50,[48],1950 nM
same,TGI,[48],4090 nM

# Reference: PubChem BioAssay (NCI)
